Results as given in patent publication US20250051266A1, “Novel GLV-Phenolamide: Biosynthesis and Function in Protecting Plants from Herbivore Attack” (Max-Planck-Gesellschaft zur Förderung der Wissenschaften …, priority 2021, published 2025).
Entries after “also recorded” stand apart in the source; their conditions may differ.

Assays:
NaPPO2 = NaPPO2 (Nicotiana attenuata, UniProt A0A1J6IKE9); experiment: In vitro enzyme assay, substrate specificity of NaPPO2; format: biochemical; conditions: incubated with NaPPO2 and (Z)-3-hexenal
Chain of NaPPO2 (A0A1J6IKE9 entry or part of it): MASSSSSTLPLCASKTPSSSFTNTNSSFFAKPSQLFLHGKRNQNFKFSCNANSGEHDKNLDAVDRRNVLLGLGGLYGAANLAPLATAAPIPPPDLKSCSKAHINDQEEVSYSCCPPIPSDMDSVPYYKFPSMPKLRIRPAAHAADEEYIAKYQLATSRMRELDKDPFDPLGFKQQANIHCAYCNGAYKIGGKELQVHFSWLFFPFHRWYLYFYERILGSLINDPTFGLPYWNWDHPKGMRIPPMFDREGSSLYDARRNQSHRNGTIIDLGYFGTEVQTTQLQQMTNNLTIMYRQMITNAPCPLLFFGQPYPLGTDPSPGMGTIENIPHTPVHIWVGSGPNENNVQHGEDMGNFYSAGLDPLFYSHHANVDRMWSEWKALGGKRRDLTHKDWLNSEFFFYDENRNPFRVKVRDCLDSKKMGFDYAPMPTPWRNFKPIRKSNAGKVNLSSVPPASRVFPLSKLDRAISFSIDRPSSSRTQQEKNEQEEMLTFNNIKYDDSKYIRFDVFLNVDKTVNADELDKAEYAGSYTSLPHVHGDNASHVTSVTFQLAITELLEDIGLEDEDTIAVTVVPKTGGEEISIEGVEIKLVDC
Excerpt: Extracted ion chromatograms (EIC) for doubly charged CP dimer (m/z 250.13) and m/z 347.19 in E. coli expressing NaPPO1 and NaPPO2 with CP and Z3H or (E)-2-hexenal. Compounds 1, 2, 3, 4 denote isomers of CP dimer; compounds 5, 6 denote isomers of m/z 347.19.
FIG. 53 Substrate specificity of NaPPO1 and NaPPO2 enzymes. Overlay of total ion chromatograms (TIC) of enzyme assays for authentic chlorogenic acid (CGA std), N-coumaroylputrescine (CoP std), (Z)-3-hexenal or (E)-2-hexenal with purified NaPPO1/NaPPO2 from E. coli. Compounds 1 and 2 denote CGA and CoP; 3 and 4 denote contamination peaks from (Z)-3-hexenal and CoP standards, respectively.
To test this hypothesis, purified NaPPO1, NaPPO2 and NaBBL2 proteins with N-terminal hexahistidine tags after expression in Escherichia coli were isolated (FIGS. 44-45). Incubation of either NaPPO1 or NaPPO2 (NaPPO1/2) with CP and (Z)-3-hexenal yielded a m/z 347.19 peak with identical MS/MS spectrum and retention time as the m/z 347.19 induced in N. attenuata leaves (FIG. 46). Additionally, by-products of doubly charged CP dimers at m/z 250.13 ([M+2H]2+, C26H36N4O62+) which are not detected in oral secretion-induced leaves of N. attenuata WT (Data 2) were also produced in vitro (FIG. 16 and FIG. 47). These doubly charged CP dimers were only produced when the quantities of the (Z)-3-hexenal substrate were lower than those of the CP substrate in vitro. […]
In vitro assays of NaPPO1, NaPPO2, and NaBBL2: NaPPO1, NaPPO2, and NaBBL2 enzyme activity assays were performed by incubating 100 μg of the purified recombinant protein in 84 mM acetate buffer (pH 4.8) containing 20 mM (E)-N-caffeoylputrescine (BOC Sciences, catalogue #: B0005-053482) and 1 M cis-3-hexenal (Sigma, catalogue #: W256102-SAMPLE-K) or trans-2-hexenal (Sigma, catalogue #: W256005-1KG-K). During incubation of the enzyme reactions at 8° C., 1 μL of the reactions buffer was directly injected and analyzed by LC-MS every h to detect products. […]

Empoasca decipiens = experiment: In vitro Empoasca non-choice (direct feeding) assay on artificial diet; format: in vivo; conditions: physiologically relevant concentrations (CoP 7 μM, CP 100 μM, FP 10 μM) in 10% glucose solution
Experimental: FIG. 18 Mortality rates of in vitro Empoasca non-choice assays (n=4, 25 Empoasca leafhoppers per replicate) in which Empoasca were fed for 6 h with either 1 μM m/z 347.19 synthesized by using NaPPO1/NaPPO2 and CP and Z3H and diluted in 10% glucose solution or with 10% glucose as control (top). Empoasca in planta choice assays (n=8) conducted with VIGS plants of EV, PPO1, PPO2 and AT1 (bottom).
To test if CPH is responsible for Empoasca resistance, E. decipiens were fed with physiologically relevant concentrations of 1 μM (estimated from field-collected elicited leaves) of NMR-confirmed CPH in diets containing 10% glucose in vitro. […] NaAT1 expression was silenced in N. attenuata plants using VIGS, which disrupted the production of both CP and the CPH (Li et al., Proc Natl Acad Sci USA 112, E4147-4155 (2015)) (FIG. 13).
Empoasca feeding assays: The survival rate of Empoasca feeding on artificial diet (10% 5 sucrose in water) supplemented with caffeoylputrescine (CP, 100 μM), coumaroylputrescine (CoP, 7 μM), feruloylputrescine (FP, 10 μM), or the m/z 347.19 hexenyl derivative of CP (CPH, 1 μM) was recorded every 1 h overnight. The artificial feeding devices consisted of a 50-mL Falcon tube with a 7-mm hole drilled into the conical bottom through which the leafhoppers were aspi-rated into the tube and which then was covered with Parafilm punctured with needles to create ventilation holes. The large opening of the Falcon tube was covered with a double layer of Parafilm containing the liquid diet (100 μL). The artificial feeding devices were placed upside down with the liquid diet side down on a White Light Box (STRATAGENE) to provide bottom-light illu-mination.

N-coumaroylputrescine [CoP]
acceptance as substrate (new products) (NaPPO2): not accepted as substrates
changes in mortality rates of E. decipiens compared to glucose controls (Empoasca decipiens): no significant changes in mortality rates; also recorded: not affecting leafhopper behavior or performance
